Source: patent US20250170248A1, “SMARCA DEGRADERS AND USES THEREOF” (Kymera Therapeutics, Inc., priority 2021, published 2025)

What was measured:
Format in all cases: cell-based
[1] = molecular target: T1, SMARCA2 (Homo sapiens, UniProt P51531); test: MSD SMARCA2 degradation in A549 cell line; conditions: for Dmax: A549, A549 cells; for Dmax / DC50: 24 h; for DC50: read-out: SMARCA2 MSD A549 degradation 24 h: Average external-Abs DC50
How it was run: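 SMARCA2 protein remaining after 24 h exposure of A549 cells (top concentration 1000 nM, 3-fold dilutions) was measured by MSD electrochemiluminescence immunoassay of cell lysates. Results are given as binned DC50 and maximal degradation (Dmax) codes.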

[2] = molecular target: T2, SMARCA4 (Homo sapiens, UniProt P51532); test: SMARCA4 Western blot degradation in MV4-11 cells; conditions: for Dmax: MV4-11, MV4-11 cells, read-out: SMARCA4 MSD MV411 degradation 24 h: average Dmax %; for Dmax / DC50: 24 h; for DC50: read-out: SMARCA4 MSD MV411 degradation 24 h: Mean external-Abs DC50
T2 construct: SMARCA2/SMARCA4 protein degradation selectivity in MV4-11 cells; endogenous in cells; host or cells: MV4-11
How it was run: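 Protein levels quantified by LI-COR Western blot (beta-actin loading control) in RIPA lysates of MV4-11 cells after 24 h compound exposure. Degradation reported as DC50, Dmax % at 24 h and SMARCA2 vs SMARCA4 selectivity, each binned into letter codes.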

[3] = molecular target: T1, SMARCA2; test: SMARCA2 Western blot degradation in MV4-11 cells; set-up: SMARCA2/SMARCA4 protein degradation selectivity in MV4-11 cells; endogenous in cells; host or cells: MV4-11; conditions: for Dmax: MV4-11, MV4-11 cells, read-out: SMARCA2 MSD MV411 degradation 24 h: average Dmax %; for DC50: read-out: SMARCA2 MSD MV411 degradation 24 h: Mean external-Abs DC50; for Selectivity in MV411: SMARCA2/4 selectivity

T1 sequence (P51531 whole entry): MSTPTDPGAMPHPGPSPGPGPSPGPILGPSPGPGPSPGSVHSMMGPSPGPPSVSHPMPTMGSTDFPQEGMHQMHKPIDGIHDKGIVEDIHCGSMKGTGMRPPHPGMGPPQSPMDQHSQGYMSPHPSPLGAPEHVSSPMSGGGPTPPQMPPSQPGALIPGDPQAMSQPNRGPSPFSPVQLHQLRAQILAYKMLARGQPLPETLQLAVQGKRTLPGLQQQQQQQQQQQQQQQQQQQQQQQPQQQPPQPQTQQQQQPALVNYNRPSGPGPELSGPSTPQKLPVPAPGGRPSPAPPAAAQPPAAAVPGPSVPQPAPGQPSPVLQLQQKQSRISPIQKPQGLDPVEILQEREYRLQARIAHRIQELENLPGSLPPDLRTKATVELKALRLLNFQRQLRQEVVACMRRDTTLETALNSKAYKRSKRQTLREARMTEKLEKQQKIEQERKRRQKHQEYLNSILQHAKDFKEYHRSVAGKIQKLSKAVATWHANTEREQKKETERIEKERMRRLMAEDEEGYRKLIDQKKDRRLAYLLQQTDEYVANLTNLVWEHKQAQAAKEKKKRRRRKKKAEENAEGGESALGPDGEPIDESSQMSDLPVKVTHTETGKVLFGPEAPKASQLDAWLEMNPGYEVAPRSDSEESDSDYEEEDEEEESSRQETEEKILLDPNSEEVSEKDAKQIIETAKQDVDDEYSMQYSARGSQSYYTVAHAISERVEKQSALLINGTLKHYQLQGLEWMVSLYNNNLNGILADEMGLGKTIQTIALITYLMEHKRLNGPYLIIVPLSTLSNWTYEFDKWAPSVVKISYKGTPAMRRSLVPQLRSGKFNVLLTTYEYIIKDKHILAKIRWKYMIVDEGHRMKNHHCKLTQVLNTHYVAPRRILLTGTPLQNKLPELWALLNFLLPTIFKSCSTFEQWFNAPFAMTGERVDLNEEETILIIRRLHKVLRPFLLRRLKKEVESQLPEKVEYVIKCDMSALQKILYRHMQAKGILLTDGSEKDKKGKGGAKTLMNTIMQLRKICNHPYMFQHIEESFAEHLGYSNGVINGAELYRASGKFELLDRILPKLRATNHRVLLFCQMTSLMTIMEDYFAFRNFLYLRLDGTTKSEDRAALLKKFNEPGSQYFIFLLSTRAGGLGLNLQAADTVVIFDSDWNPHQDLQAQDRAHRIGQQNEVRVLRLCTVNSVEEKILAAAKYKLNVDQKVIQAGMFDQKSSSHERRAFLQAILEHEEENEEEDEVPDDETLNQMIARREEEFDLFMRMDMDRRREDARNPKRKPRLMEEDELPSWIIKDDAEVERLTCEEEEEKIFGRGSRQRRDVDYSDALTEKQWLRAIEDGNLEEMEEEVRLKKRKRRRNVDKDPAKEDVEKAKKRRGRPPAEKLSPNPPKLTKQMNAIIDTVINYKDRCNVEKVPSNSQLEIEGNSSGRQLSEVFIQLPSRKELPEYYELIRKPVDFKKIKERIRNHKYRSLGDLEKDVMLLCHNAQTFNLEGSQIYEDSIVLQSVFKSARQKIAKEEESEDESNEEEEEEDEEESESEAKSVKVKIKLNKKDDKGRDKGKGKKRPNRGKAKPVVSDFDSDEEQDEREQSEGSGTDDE
T2 sequence (P51532 whole entry): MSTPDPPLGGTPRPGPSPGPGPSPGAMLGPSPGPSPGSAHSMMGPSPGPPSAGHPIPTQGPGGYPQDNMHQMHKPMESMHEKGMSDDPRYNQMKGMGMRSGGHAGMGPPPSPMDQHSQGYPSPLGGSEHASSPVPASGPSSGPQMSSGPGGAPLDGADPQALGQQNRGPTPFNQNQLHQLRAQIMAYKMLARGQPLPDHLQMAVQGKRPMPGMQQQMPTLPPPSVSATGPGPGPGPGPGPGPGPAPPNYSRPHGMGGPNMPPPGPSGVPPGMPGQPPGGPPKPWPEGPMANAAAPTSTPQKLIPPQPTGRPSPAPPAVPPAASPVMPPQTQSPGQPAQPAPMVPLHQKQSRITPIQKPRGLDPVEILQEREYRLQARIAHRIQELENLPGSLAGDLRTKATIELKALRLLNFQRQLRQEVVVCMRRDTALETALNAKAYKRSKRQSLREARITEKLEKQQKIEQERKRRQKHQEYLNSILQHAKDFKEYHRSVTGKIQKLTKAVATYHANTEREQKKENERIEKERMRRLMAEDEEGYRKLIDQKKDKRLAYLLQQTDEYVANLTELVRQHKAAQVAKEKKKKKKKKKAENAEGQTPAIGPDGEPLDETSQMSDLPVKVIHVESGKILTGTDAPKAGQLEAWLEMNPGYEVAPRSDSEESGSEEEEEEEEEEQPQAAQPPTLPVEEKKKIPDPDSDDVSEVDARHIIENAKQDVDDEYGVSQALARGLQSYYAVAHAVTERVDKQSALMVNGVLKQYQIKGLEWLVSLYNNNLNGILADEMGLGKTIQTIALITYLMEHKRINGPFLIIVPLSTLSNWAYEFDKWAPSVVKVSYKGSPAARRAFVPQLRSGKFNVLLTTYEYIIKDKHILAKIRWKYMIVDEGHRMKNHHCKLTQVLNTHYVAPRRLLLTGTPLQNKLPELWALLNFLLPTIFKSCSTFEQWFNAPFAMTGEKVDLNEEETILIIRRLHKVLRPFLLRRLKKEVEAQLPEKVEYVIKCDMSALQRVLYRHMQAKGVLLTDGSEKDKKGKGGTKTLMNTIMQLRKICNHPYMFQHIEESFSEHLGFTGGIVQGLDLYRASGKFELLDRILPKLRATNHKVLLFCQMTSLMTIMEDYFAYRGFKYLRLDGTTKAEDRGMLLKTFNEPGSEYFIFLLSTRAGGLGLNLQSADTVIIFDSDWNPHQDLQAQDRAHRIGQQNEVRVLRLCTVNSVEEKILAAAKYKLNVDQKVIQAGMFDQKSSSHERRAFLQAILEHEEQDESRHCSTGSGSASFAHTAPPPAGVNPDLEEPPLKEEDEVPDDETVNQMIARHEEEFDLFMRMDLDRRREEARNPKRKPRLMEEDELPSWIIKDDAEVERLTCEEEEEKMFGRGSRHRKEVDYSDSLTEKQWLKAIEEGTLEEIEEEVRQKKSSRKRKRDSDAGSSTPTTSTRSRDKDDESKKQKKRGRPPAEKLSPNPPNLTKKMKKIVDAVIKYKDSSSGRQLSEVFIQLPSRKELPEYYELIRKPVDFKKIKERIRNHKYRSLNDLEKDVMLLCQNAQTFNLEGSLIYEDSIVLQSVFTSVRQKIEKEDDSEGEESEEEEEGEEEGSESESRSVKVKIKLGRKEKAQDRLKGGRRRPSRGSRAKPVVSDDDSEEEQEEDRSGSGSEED

Dmax [1] | DC50 ([1]; A549 cells) | Dmax [2] | DC50 ([2]; MV4-11 cells) | Dmax ([3]; 24 h) | DC50 ([3]; MV4-11 cells, 24 h) | Selectivity in MV411 ([3]; MV4-11 cells) | SMARCA2 MSD A549 degradation 24 h: Average Dmax % ([1]; A549 cells) | SMARCA4 MSD MV411 degradation 24 h: average Dmax % ([2]; MV4-11 cells) | SMARCA2 MSD MV411 degradation 24 h: average Dmax % ([3]; MV4-11 cells, 24 h) | SMILES
> 90% | > 100 nM | 50 to 70% | > 100 nM | 50 to 70% | 10 to 100 nM | C (C (10-100 fold)) |  |  |  | C#Cc1ccc(CNC(=O)[C@@H]2C[C@@H](O)CN2C(=O)[C@@H](NC(=O)N2CC3(CC(N4CCC5(CCN(c6cnc(N7CCc8[nH]c9nnc(-c%10ccccc%10O)cc9c8C7C)nc6)C5)C4)C3)C2)C(C)(C)C)cc1 (some centres unmarked) [I-173]
> 90% | > 100 nM | < 50% | > 100 nM | 50 to 70% | 10 to 100 nM | C (C (10-100 fold)) |  |  |  | C#Cc1ccc(CNC(=O)[C@@H]2C[C@@H](O)CN2C(=O)[C@@H](NC(=O)[C@H]2CCC3(CC2)C[C@H](N2CCC(N4CCC(N5CCN6c7cc(-c8ccccc8O)nnc7NC[C@H]6C5)CC4)CC2)C3)C(C)(C)C)c(F)c1 (some centres unmarked) [I-176]
 | > 100 nM |  | > 100 nM |  | 10 to 100 nM | B (B (>100-500 fold)) | A (A (>90% degradation)) | C (C (50-70% degradation)) | B (B (>70-90% degradation)) | C#Cc1ccc(CNC(=O)[C@@H]2C[C@@H](O)CN2C(=O)[C@@H](NC(=O)[C@H]2CCC3(CC2)C[C@H](N2CCC(N4CCC(N5CCN6c7cc(-c8ccccc8O)nnc7NC[C@H]6C5)CC4)CC2)C3)C(C)(C)C)c(OC)c1 (some centres unmarked) [I-178]
> 90% | > 100 nM | > 90% | > 100 nM | 70 to 90% | 10 to 100 nM | D (D (<10 fold)) |  |  |  | C#Cc1ccc(CNC(=O)[C@@H]2C[C@@H](O)CN2C(=O)[C@@H](NC(=O)N2CC3(CC(N4CCC(N5CCC(N6CCc7[nH]c8nnc(-c9ccccc9O)cc8c7[C@@H]6C)CC5)CC4)C3)C2)C(C)(C)C)cc1 [I-180]
> 90% | > 100 nM | < 50% | > 100 nM | 50 to 70% | 10 to 100 nM | B (B (>100-500 fold)) |  |  |  | C#Cc1ccc(CNC(=O)[C@@H]2C[C@@H](O)CN2C(=O)[C@@H](NC(=O)N2CC3(CC(N4CCC(N5CCC(N6CCc7[nH]c8nnc(-c9ccccc9O)cc8c7[C@H]6C)CC5)CC4)C3)C2)C(C)(C)C)c(F)c1 [I-181]
> 90% | > 100 nM | 70 to 90% | > 100 nM | 50 to 70% | 10 to 100 nM | D (D (<10 fold)) |  |  |  | C#Cc1ccc(CNC(=O)[C@@H]2C[C@@H](O)CN2C(=O)[C@@H](NC(=O)N2CC3(CC(N4CCC(N5CCC(N6CCc7[nH]c8nnc(-c9ccccc9O)cc8c7[C@@H]6C)CC5)CC4)C3)C2)C(C)(C)C)c(F)c1 [I-182]
> 90% | > 100 nM | 70 to 90% | > 100 nM | 70 to 90% | 10 to 100 nM | C (C (10-100 fold)) |  |  |  | C#Cc1ccc(CNC(=O)[C@@H]2C[C@@H](O)CN2C(=O)[C@@H](NC(=O)N2CC3(CC(N4CCC(N5CCC(N6CCc7[nH]c8nnc(-c9ccccc9O)cc8c7[C@H]6C)CC5)CC4)C3)C2)C(C)(C)C)c(OC)c1 [I-183]
> 90% | > 100 nM | < 50% | > 100 nM | < 50% | > 100 nM | C (C (10-100 fold)) |  |  |  | C#Cc1ccc(CNC(=O)[C@@H]2C[C@@H](O)CN2C(=O)[C@@H](NC(=O)N2CC3(CC(N4CCC([C@H]5CC[C@H](N6CCc7[nH]c8nnc(-c9ccccc9O)cc8c7[C@H]6C)CC5)CC4)C3)C2)C(C)(C)C)cc1 [I-184]
> 90% | > 100 nM | 70 to 90% | > 100 nM | 70 to 90% | 10 to 100 nM | C (C (10-100 fold)) |  |  |  | C#Cc1ccc(CNC(=O)[C@@H]2C[C@@H](O)CN2C(=O)[C@@H](NC(=O)N2CC3(CC(N4CCC([C@H]5CC[C@@H](N6CCc7[nH]c8nnc(-c9ccccc9O)cc8c7[C@H]6C)CC5)CC4)C3)C2)C(C)(C)C)cc1 [I-185]
> 90% | 50 to 100 nM | > 90% | 10 to 100 nM | 70 to 90% | 10 to 100 nM | D (D (<10 fold)) |  |  |  | C#Cc1ccc(CNC(=O)[C@@H]2C[C@@H](O)CN2C(=O)[C@@H](NC(=O)N2CC3(CC(N4CCN([C@H]5CC[C@H](N6CCc7[nH]c8nnc(-c9ccccc9O)cc8c7[C@H]6C)CC5)CC4)C3)C2)C(C)(C)C)cc1 [I-186]
> 90% | 50 to 100 nM | 70 to 90% | > 100 nM | 70 to 90% | 1 to 10 nM | C (C (10-100 fold)) |  |  |  | C#Cc1ccc(CNC(=O)[C@@H]2C[C@@H](O)CN2C(=O)[C@@H](NC(=O)N2CC3(CC(N4CCN([C@H]5CC[C@@H](N6CCc7[nH]c8nnc(-c9ccccc9O)cc8c7[C@H]6C)CC5)CC4)C3)C2)C(C)(C)C)cc1 [I-187]
50 to 70% | > 100 nM | < 50% | > 100 nM | < 50% | > 100 nM | C (C (10-100 fold)) |  |  |  | C#Cc1ccc(CNC(=O)[C@@H]2C[C@@H](O)CN2C(=O)[C@@H](NC(=O)N2CCC(CN3CCC(N4CCC(N5CCc6[nH]c7nnc(-c8ccccc8O)cc7c6[C@H]5C)CC4)CC3)CC2)C(C)(C)C)cc1 [I-189]
> 90% | > 100 nM | 50 to 70% | > 100 nM | 50 to 70% | 10 to 100 nM | C (C (10-100 fold)) |  |  |  | C#Cc1ccc(CNC(=O)[C@@H]2C[C@@H](O)CN2C(=O)[C@@H](NC(=O)N2CC3(CC(CN4CCC(N5CCC(N6CCc7[nH]c8nnc(-c9ccccc9O)cc8c7[C@H]6C)CC5)CC4)C3)C2)C(C)(C)C)cc1 [I-190]
> 90% | > 100 nM | 70 to 90% | > 100 nM | 70 to 90% | 1 to 10 nM | C (C (10-100 fold)) |  |  |  | C#Cc1ccc(CNC(=O)[C@@H]2C[C@@H](O)CN2C(=O)[C@@H](NC(=O)N2CC3(CC(N4CCC(N5CCc6[nH]c7nnc(-c8ccccc8O)cc7c6[C@H]5C)CC4)C3)C2)C(C)(C)C)cc1 [I-191]
70 to 90% | > 100 nM | < 50% | > 100 nM | < 50% | > 100 nM | C (C (10-100 fold)) |  |  |  | C#Cc1ccc(CNC(=O)[C@@H]2C[C@@H](O)CN2C(=O)[C@@H](NC(=O)N2CCC(C(=O)N3CCC(N4CCC(N5CCc6[nH]c7nnc(-c8ccccc8O)cc7c6[C@H]5C)CC4)CC3)CC2)C(C)(C)C)cc1 [I-192]
70 to 90% | > 100 nM | < 50% | > 100 nM | < 50% | > 100 nM | C (C (10-100 fold)) |  |  |  | C#Cc1ccc(CNC(=O)[C@@H]2C[C@@H](O)CN2C(=O)[C@@H](NC(=O)N2CCN(C[C@H]3CC[C@@H](N4CCC(N5CCc6[nH]c7nnc(-c8ccccc8O)cc7c6[C@H]5C)CC4)CC3)CC2)C(C)(C)C)cc1 [I-193]
70 to 90% | > 100 nM | < 50% | > 100 nM | < 50% | > 100 nM | C (C (10-100 fold)) |  |  |  | C#Cc1ccc(CNC(=O)[C@@H]2C[C@@H](O)CN2C(=O)[C@@H](NC(=O)N2CCN(C[C@H]3CC[C@H](N4CCC(N5CCc6[nH]c7nnc(-c8ccccc8O)cc7c6[C@H]5C)CC4)CC3)CC2)C(C)(C)C)cc1 [I-194]
70 to 90% | > 100 nM | < 50% | > 100 nM | < 50% | > 100 nM | C (C (10-100 fold)) |  |  |  | C#Cc1ccc(CNC(=O)[C@@H]2C[C@@H](O)CN2C(=O)[C@@H](NC(=O)C2CCN(CC3CCC(N4CCC(N5CCc6[nH]c7nnc(-c8ccccc8O)cc7c6[C@H]5C)CC4)CC3)CC2)C(C)(C)C)cc1 (some centres unmarked) [I-197]
70 to 90% | > 100 nM | < 50% | > 100 nM | 50 to 70% | 10 to 100 nM | C (C (10-100 fold)) |  |  |  | C#Cc1ccc(CNC(=O)[C@@H]2C[C@@H](O)CN2C(=O)[C@@H](NC(=O)N2CCC(CN3CCC(N4CCc5[nH]c6nnc(-c7ccccc7O)cc6c5[C@H]4C)CC3)CC2)C(C)(C)C)cc1 [I-198]
> 90% | > 100 nM | < 50% | > 100 nM | 50 to 70% | 10 to 100 nM | C (C (10-100 fold)) |  |  |  | C#Cc1ccc(CNC(=O)[C@@H]2C[C@@H](O)CN2C(=O)[C@@H](NC(=O)N2CCN(C[C@H]3CC[C@@H](N4CCc5[nH]c6nnc(-c7ccccc7O)cc6c5[C@H]4C)CC3)CC2)C(C)(C)C)cc1 [I-199]
